{"source": "patent US10238630B2", "about": "“Use of eribulin and poly (ADP ribose) polymerase (PARP) inhibitors as combination therapy for the treatment of cancer” (Eisai R&D Management Co., Ltd., priority 2014, dated 2019)", "key": {"[1]": {"system": "MDA-MB-436 human breast cancer xenografts", "experiment": "Antitumor activity against subcutaneous MDA-MB-436 human breast cancer xenografts in SCID mice (three studies)", "assay_type": "in vivo", "description": "MDA-MB-436 human triple negative breast cancer cells are BRCA1 mutant and PTEN null. Cells were maintained in monolayer cultures in RPMI-1640 growth medium supplemented with 10% fetal bovine serum at 37° C. in a 5% CO2 humidified incubator. On the day of inoculation, cells were harvested by trypsinization, washed, and resuspended in ice-cold PBS. Female immunodeficient SCID mice were inoculated subcutaneously near the right axillary area with MDA-MB-436 cells (5×10^6) in a 1:1 ratio (50 μL each) with Matrigel™ in a volume of 0.1 mL in phosphate buffered saline, using a 26-gauge needle. A total of 125 mice, approximately 6 weeks old were implanted with MDA-MB-436 cells.\nE7449, carboplatin and E7389 were evaluated as single agents and in combination for antitumor activity against MDA-MB-436 human breast cancer xenografts in SCID mice. Three separate studies were performed. The first experiment consisted of a vehicle control group, an E7449 single agent group, two groups treated with single agent E7389 and 2 combination drug-treated groups (Table 1). Thirty mice were inoculated with MDA-MB-436 cells and on Day 58 following implantation, tumor volumes were measured and mice were randomized into the 6 treatment groups based on tumor volume (average of 300 mm^3). Following randomization, drug treatment was initiated. Groups A to D were composed of 5 mice and groups E and F consisted of 4 mice for a total of 28 mice on the first day of treatment. E7449 was formulated in 0.5% methyl cellulose and orally administered once daily for 28 days (starting on Day 58) at 60 mg/kg based on body weight at 0.1 mL per 10 g. E7389 was formulated in saline and was intravenously administered once every 4 days, 4 times (Day 58, 62, 66, and 70) at a dosage of 0.4 or 1.6 mg/kg as single agent or in combination with E7449, based on body weight at 0.1 mL per 10 g. The control group was treated with oral vehicle (0.5% methyl cellulose in water) daily and intravenous vehicle (saline) once every 4 days, 4 times. E7449 or vehicle was administered first and when dosing of all animals was complete, E7389 was administered to animals receiving the combination.\nThe second experiment consisted of a vehicle control group, an E7449 single agent group, 2 groups treated with single agent carboplatin, and 2 combination drug-treated groups (Table 2). Thirty-five mice were inoculated with MDA-MB-436 cells and on Day 57, following implantation, tumor volumes were measured and mice were randomized into 6 treatment groups based on tumor volume (average of 250 mm^3). Following randomization drug treatment was initiated. Groups A to D were composed of 5 mice and groups E and F consisted of 6 mice for a total of 32 mice on the first day of treatment. E7449, formulated in 0.5% methyl cellulose was orally administered daily for 28 days (starting on Day 57), at 60 mg/kg based on body weight at 0.1 mL per 10 g. Carboplatin was formulated in saline and was intravenously administered once on the first day of treatment (Day 57) at a dosage of 15 or 60 mg/kg as a single agent or in combination with E7449 based on body weight at 0.1 mL per 10 g. The control group was treated with oral vehicle (0.5% methyl cellulose in water) daily and intravenous vehicle (saline) once on Day 57. E7449 or vehicle was administered first, and when dosing of all animals was complete carboplatin was administered to animals receiving the combination.\nThe third experiment consisted of a vehicle control group, 3 groups treated with single agent E7449, E7389, or carboplatin, 3 groups treated with double combinations of E7449+E7389, E7449+carboplatin, and E7389+carboplatin and a group treated with the three-drug combination (Table 3). Sixty mice were inoculated with MDA-MB-436 cells and on Day 41 following implantation, tumor volumes were measured and mice were randomized into 8 treatment groups based on tumor volume (average of 250 mm^3). Following randomization drug treatment was initiated."}, "[2]": {"system": "MDA-MB-231 human breast cancer xenografts", "experiment": "Antitumor activity against subcutaneous MDA-MB-231 human breast cancer xenografts in athymic mice (two studies)", "assay_type": "in vivo", "settings": "carboplatin 15 and 60 mg/kg IV QDx1, single agent", "description": "MDA-MB-231 human triple negative breast cancer cells are wild type for BRCA1 and 2 and PTEN. Cells were maintained in monolayer cultures in RPMI-1640 growth medium supplemented with 10% fetal bovine serum at 37° C. in a 5% CO2 humidified incubator. On the day of inoculation, cells were harvested by trypsinization, washed, and resuspended in ice-cold PBS. Female immunodeficient athymic mice were inoculated subcutaneously near the right axillary area with MDA-MB-231 cells (5×10^6) in a 1:1 ratio (50 μL each) with Matrigel™ in a volume of 0.1 mL in phosphate buffered saline, using a 26-gauge needle. A total of 94 mice, approximately 6 weeks old were implanted with MDA-MB-231 cells.\nE7449, carboplatin and E7389 were evaluated as single agents and in combination for antitumor activity against MDA-MB-231 human breast cancer xenografts in athymic mice. The first experiment consisted of a vehicle control group, an E7449 single agent group, 2 groups treated with single agent E7389 and 2 combination drug-treated groups (Table 5). Thirty-nine mice were inoculated with MDA-MB-231 cells and on Day 21 following implantation, tumor volumes were measured and mice were randomized into the 6 treatment groups based on tumor volume (average of 300 mm^3). Following randomization drug treatment was initiated. Each group was composed of 5 mice for a total of 30 mice on the first day of treatment. E7449 was formulated in 0.5% methyl cellulose and orally administered once daily for 28 days at 100 mg/kg based on body weight at 0.1 mL per 10 g. E7389 was formulated in saline and was intravenously administered once every 4 days, 4 times (Day 21, 25, 29, and 33) at a dosage of 0.05 or 0.1 mg/kg as single agent or in combination with E7449, based on body weight at 0.1 mL per 10 g. The control group was treated with oral vehicle (0.5% methyl cellulose in water) daily and intravenous vehicle (saline) once every 4 days, 4 times. E7449 or vehicle was administered first and when dosing of all animals was complete E7389 was administered to animals receiving the combination.\nThe second experiment consisted of a vehicle control group, 2 groups treated with single agent E7449, 2 groups treated with single agent carboplatin and 3 combination drug-treated groups (Table 6). Fifty five mice were inoculated with MDA-MB-231 cells and on Day 18 following implantation, tumor volumes were measured and mice were randomized into 8 treatment groups based on tumor volume (average of 300 mm^3). Following randomization drug treatment was initiated. Each group consisted of 5 mice for a total of 40 mice on the first day of treatment. E7449, formulated in 0.5% methyl cellulose was orally administered daily for 28 days, at 60 or 100 mg/kg based on body weight at 0.1 mL per 10 g. Carboplatin was formulated in saline and was intravenously administered once on the first day of treatment (Day 18) at a dosage of 15 or 60 mg/kg as a single agent or in combination with E7449 based on body weight at 0.1 mL per 10 g. The control group was treated with oral vehicle (0.5% methyl cellulose in water) daily and intravenous vehicle (saline) once on Day 18. E7449 or vehicle was administered first and when dosing of all animals was complete carboplatin was administered to animals receiving the combination.\nDrug treatment was initiated 21 or 18 days post tumor implantation, in the E7389 and carboplatin combination studies respectively, and continued for 28 days. […]"}}}
{"molecule": "N.N.O=C([O-])C1(C(=O)[O-])CCC1.[Pt+2]", "note": "[carboplatin]", "values": [{"measurement": "antitumor effect (tumor volume)", "setting": "[1]; E7449+carboplatin study, carboplatin 15 and 60 mg/kg IV QDx1, single agent", "result": "Dose-dependent antitumor activity"}, {"measurement": "antitumor effect (tumor volume)", "setting": "[1]; triple combination study, carboplatin 7.5 mg/kg IV QDx1, single agent", "result": "statistically significant tumor growth inhibition"}, {"measurement": "antitumor effect (tumor volume)", "setting": "[2]", "result": "Modest antitumor activity"}]}
